Test [1] relates to primary CLL cells. Briefly: Cytotoxicity, TMRE flow cytometry viability, primary CLL cells (Example II.1). The test is classed as cell-based. Conditions: Homo sapiens, CLL cell, 6 hours, TMRE positive cells normalized to control, ratio to PF670462, <1 = higher cytotoxicity than PF670462, read-out: Viability of cells, Compound of formula I (100 μM), relative to PF670462 (100 μM), CLL primary cells. As for the experimental part: (§1) The leukemia and lymphoma-derived cell lines [MEC-1 cell line (derived from chronic lymphocytic leukemia—CLL), Nalm-16 (acute lymphocytic leukemia—ALL), K562 (chronic myeloid leukemia—CML), HL-60 (acute myeloid leukemia—AML), Maver-1 and Mino (mantle cell lymphoma—MCL), BL-41 (Burkitt lymphoma—BL), WSU-NHL (follicular lymphoma—FL), SUDHL (diffuse large B-cell lymphoma—DLBCL)], primary CLL cells and nonmalignant control primary cells were cultured in suspension in flasks under the following conditions: RPMI 1640 medium (Hyclone) supplemented with 10% fetal bovine serum (FBS, Gibco) and 1% penicillin/streptomycin (Life Technologies), 37° C., 5% CO2 and 95% relative humidity, with optimal culture cell density 5×10^6 cells/mL in case of primary cells and 0.5-1×10^6 cells/mL in case of cell lines. The adherent cell lines [A375 (derived from malignant melanoma), MDA-MB-231 and MCF-7 (breast cancer), MIA-PA-CA and PANC1 (pancreatic cancer), PC3 (prostate cancer), OVCAR4 (ovarian cancer) and HEPG2 (hepatocellular carcinoma)] were cultured on plates under the same conditions using RPMI1640 or DMEM medium (Gibco) according to instructions provided by the distributor (DSMZ/ATCC).
(§2) Cytotoxicity of compounds of formula I was tested in two models representative for leukemia (primary CLL cells) and lymphoma (Maver-1 cells). The primary CLL cells and Maver-1 cells (MCL-derived) were incubated with inhibitors at 100 μM concentration or corresponding amount of solvent (DMSO, Sigma Aldrich) as 0.1×10^6 cells/200 μl per well in a 96-well plate. Experiments were performed in technical duplicates. Viability of cells was assessed after 6 hours in case of primary CLL cells and after 24 hours in case of Maver-1 cells.
(§3) Apoptosis-induced reduction of mitochondrial potential is detected as lower TMRE fluorescence. […] Relative values are presented, showing ratio to the effect of PF670462 (as the closest prior art). Relative value <1 indicates a higher cytotoxicity than PF670462.

The test system of test [2] is Maver-1 cells (mantle cell lymphoma). Briefly: Cytotoxicity, TMRE flow cytometry viability, Maver-1 cells (Example II.1). The class given is cell-based. Conditions: Homo sapiens, Maver1, 24 hours, TMRE positive cells normalized to control, ratio to PF670462, <1 = higher cytotoxicity than PF670462, read-out: Viability of cells, Compound of formula I (100 μM), relative to PF670462 (100 μM), Maver-1 cells (mantle cell lymphoma). As for the experimental part: as §1, §2, §3
Background: A flow cytometer gives signals particle by particle.

Drawing on patent US11498920B2, “4-(1H-imidazol-5-yl)-1H-pyrrolo[2, 3-b] pyridines for use in the treatment of leukaemias, lymphomas and solid tumors” (MASARYKOVA UNIVERZITA, priority 2018, dated 2022), this text covers viability for 23 compounds.

The structures appear in SMILES notation.

For `Fc1ccc(-c2ncn(C3CCCCC3)c2-c2ccnc3[nH]ccc23)c(F)c1` [Preparative Example 4, 4-(1-cyclohexyl-4-(2,4-difluorophenyl)-1H-imidazol-5-yl)-1H-pyrrolo[2,3-b]pyridine], the viability at 100 µM in test [1] and in test [2] was 21% in each case.

Regarding `Clc1cccc(-c2ncn(C3CCCCC3)c2-c2ccnc3[nH]ccc23)c1` [Preparative Example 5, 4-(4-(3-chlorophenyl)-1-cyclohexyl-1H-imidazol-5-yl)-1H-pyrrolo[2,3-b]pyridine], the viability at 100 µM in test [1] was 24%; in test [2] it was 54%.

Consider `Brc1cccc(-c2ncn(C3CCCCC3)c2-c2ccnc3[nH]ccc23)c1` [Preparative Example 6, 4-(4-(3-bromophenyl)-1-cyclohexyl-1H-imidazol-5-yl)-1H-pyrrolo[2,3-b]pyridine], for which the results for the viability at 100 µM in test [1] and in test [2] were 37% and 42%, respectively.

For `Clc1ccc(-c2ncn(C3CCCCC3)c2-c2ccnc3[nH]ccc23)c(Cl)c1` [Preparative Example 7], the viability at 100 µM stood at 34% in test [1] and 84% in test [2].

On to `c1ccc(-c2ncn(C3CCCCC3)c2-c2ccnc3[nH]ccc23)cc1` [Preparative Example 8], for which the viability at 100 µM in test [1] came to 32%; in test [2], 4%.

On to `Clc1ccc(-c2ncn(C3CCCCC3)c2-c2ccnc3[nH]ccc23)cc1` [Preparative Example 9, 4-(4-(4-chlorophenyl)-1-cyclohexyl-1H-imidazol-5-yl)-1H-pyrrolo[2,3-b]pyridine], for which the values for the viability at 100 µM in test [1] and in test [2] were 50% and 30%, respectively.

As for `Brc1ccc(-c2ncn(C3CCCCC3)c2-c2ccnc3[nH]ccc23)cc1` [Preparative Example 10, 4-(4-(4-bromophenyl)-1-cyclohexyl-1H-imidazol-5-yl)-1H-pyrrolo[2,3-b]pyridine], the viability at 100 µM in test [1] was 61%; in test [2], 46%.

Turning to `CC(C)(C)OC(=O)N1CCC(n2cnc(-c3ccc(F)cc3)c2-c2ccnc3[nH]ccc23)CC1` [Preparative Example 11, tert-butyl-4-(4-(4-fluorophenyl)-5-(1H-pyrrolo[2,3-b]pyridin-4-yl)-1H-imidazol-1-yl)piperidine-1-carboxylate], the viability at 100 µM is 30% in test [1] and 6% in test [2].

As to `CN1CCC(n2cnc(-c3ccc(F)cc3)c2-c2ccnc3[nH]ccc23)CC1` [Preparative Example 14, 4-(4-(4-fluorophenyl)-1-(1-methylpiperidin-4-yl)-1H-imidazol-5-yl)-1H-pyrrolo[2,3-b]pyridine], the viability at 100 µM stood at 77% in test [1] and 70% in test [2].

For the compound `Fc1ccc(-c2ncn(C3CCCCCC3)c2-c2ccnc3[nH]ccc23)cc1` [Preparative Example 19, 4-(1-cycloheptyl-4-(4-fluorophenyl)-1H-imidazol-5-yl)-1H-pyrrolo[2,3-b]pyridine], the viability at 100 µM in test [1] turned out to be 22%; in test [2], 33%.

As to `Fc1ccc(-c2ncn(Cc3ccccc3)c2-c2ccnc3[nH]ccc23)cc1` [Preparative Example 22, 4-(1-benzyl-4-(4-fluorophenyl)-1H-imidazol-5-yl)-1H-pyrrolo[2,3-b]pyridine], the figures for the viability at 100 µM in test [1] and in test [2] were 17% and 27%, respectively.

Take `CC1(C)CC(Cn2cnc(-c3ccc(F)cc3)c2-c2ccnc3[nH]ccc23)C1` [Preparative Example 29, 4-(1-((3,3-dimethylcyclobutyl)methyl)-4-(4-fluorophenyl)-1H-imidazol-5-yl)-1H-pyrrolo[2,3-b]pyridine]: the viability at 100 µM in test [1] was determined as 21%; in test [2] it was 3%.

Turning to `COC(=O)[C@H]1CC[C@@H](n2cnc(-c3ccc(F)cc3)c2-c2ccnc3[nH]ccc23)CC1` [Preparative Example 33, Methyl cis-4-(4-(4-fluorophenyl)-5-(1H-pyrrolo[2,3-b]pyridin-4-yl)-1H-imidazol-1-yl)cyclohexane-1-carboxylate], the viability at 100 µM stood at 63% in test [1] and 12% in test [2].

As for `COC(=O)[C@H]1CC[C@H](n2cnc(-c3ccc(F)cc3)c2-c2ccnc3[nH]ccc23)CC1` [Preparative Example 34, Methyl trans-4-(4-(4-fluorophenyl)-5-(1H-pyrrolo[2,3-b]pyridin-4-yl)-1H-imidazol-1-yl)cyclohexane-1-carboxylate], the viability at 100 µM in test [1] was determined as 55%; in test [2], 89%.

Regarding `Fc1ccc(-c2ncn(C3CCC(F)(F)CC3)c2-c2ccnc3[nH]ccc23)cc1` [Preparative Example 35, 4-(1-(4,4-difluorocyclohexyl)-4-(4-fluorophenyl)-1H-imidazol-5-yl)-1H-pyrrolo[2,3-b]pyridine], the viability at 100 µM was determined as 60% in test [1] and 44% in test [2].

On to `Fc1ccc(-c2ncn([C@H]3CC[C@H](C(F)(F)F)CC3)c2-c2ccnc3[nH]ccc23)cc1` [Preparative Example 36], for which the values for the viability at 100 µM in test [1] and in test [2] were 68% and 1%, respectively.

Consider `c1cc(-c2c(-c3ccsc3)ncn2C2CCCCC2)c2cc[nH]c2n1` [Preparative Example 42, 4-(1-cyclohexyl-4-(thiophen-3-yl)-1H-imidazol-5-yl)-1H-pyrrolo[2,3-b]pyridine], for which the viability at 100 µM turned out to be 76% in test [1] and 12% in test [2].

Take `Fc1ccc(-c2ncn(-c3cccnc3)c2-c2ccnc3[nH]ccc23)cc1` [Preparative Example 50, 4-(4-(4-fluorophenyl)-1-(pyridin-3-yl)-1H-imidazol-5-yl)-1H-pyrrolo[2,3-b]pyridine]: the viability at 100 µM in test [1] was 63%; in test [2], 48%.

Take `OCc1cc2c(-c3c(-c4ccc(F)cc4)ncn3C3CCCCC3)ccnc2[nH]1` [Preparative Example 56, (4-(1-cyclohexyl-4-(4-fluorophenyl)-1H-imidazol-5-yl)-1H-pyrrolo[2,3-b]pyridin-2-yl)methanol]: the viability at 100 µM in test [1] stood at 67%; in test [2] it was 79%.

As to `COCc1cc2c(-c3c(-c4ccc(F)cc4)ncn3C3CCCCC3)ccnc2[nH]1` [Preparative Example 60, 4-(1-cyclohexyl-4-(4-fluorophenyl)-1H-imidazol-5-yl)-2-(methoxymethyl)-1H-pyrrolo[2,3-b]pyridine], the results for the viability at 100 µM in test [1] and in test [2] were 93% and 84%, respectively.

Take `CS(=O)(=O)N1CCC(n2cnc(-c3ccc(F)cc3)c2-c2ccnc3[nH]ccc23)CC1` [Preparative Example 69]: the viability at 100 µM in test [1] came out at 84%; in test [2], 85%.

Consider `CCOC(=O)N1CCC(n2cnc(-c3ccc(F)cc3)c2-c2ccnc3[nH]ccc23)CC1` [Preparative Example 70, Ethyl 4-(4-(4-fluorophenyl)-5-(1H-pyrrolo[2,3-b]pyridin-4-yl)-1H-imidazol-1-yl)piperidine-1-carboxylate], for which the values for the viability at 100 µM in test [1] and in test [2] were 72% and 11%, respectively.

For `CNC(=O)N1CCC(n2cnc(-c3ccc(F)cc3)c2-c2ccnc3[nH]ccc23)CC1` [Preparative Example 71, 4-(4-(4-fluorophenyl)-5-(1H-pyrrolo[2,3-b]pyridin-4-yl)-1H-imidazol-1-yl)-N-methylpiperidine-1-carboxamide], the viability at 100 µM in test [1] and in test [2] was 87% in each case.

The viability is a read-out of living cells in per cent, often relative to untreated cells.
